Results published in ChEMBL document CHEMBL1137410, “Using fragment cocktail crystallography to assist inhibitor design of Trypanosoma brucei nucleoside 2-deoxyribosyltransferase” (2006).

Test system: Trypanosoma brucei brucei
Experiment: Inhibition of Trypanosoma brucei brucei growth
Assay type: functional
Conditions: read-out: ED50 (the source's name)

Row | EC50 [µM] | SMILES
1 | 413 | Cn1c(=O)ccc2ccccc21
2 | 252 | Nc1cccc2cnccc12
3 | 1340 | CCc1ccccc1CO
